This is an account of results in patent publication US20260217706A1, “HETEROCYCLIC COMPOUNDS, PREPARATION METHOD THEREFOR AND USE THEREOF” (GUANGZHOU YUFAN NANTU BIOTECHNOLOGIES CO., LTD, priority 2023, published 2026).

Bounds are passed on as bounds.

Chain of CBL-B protein (Q13191 whole entry): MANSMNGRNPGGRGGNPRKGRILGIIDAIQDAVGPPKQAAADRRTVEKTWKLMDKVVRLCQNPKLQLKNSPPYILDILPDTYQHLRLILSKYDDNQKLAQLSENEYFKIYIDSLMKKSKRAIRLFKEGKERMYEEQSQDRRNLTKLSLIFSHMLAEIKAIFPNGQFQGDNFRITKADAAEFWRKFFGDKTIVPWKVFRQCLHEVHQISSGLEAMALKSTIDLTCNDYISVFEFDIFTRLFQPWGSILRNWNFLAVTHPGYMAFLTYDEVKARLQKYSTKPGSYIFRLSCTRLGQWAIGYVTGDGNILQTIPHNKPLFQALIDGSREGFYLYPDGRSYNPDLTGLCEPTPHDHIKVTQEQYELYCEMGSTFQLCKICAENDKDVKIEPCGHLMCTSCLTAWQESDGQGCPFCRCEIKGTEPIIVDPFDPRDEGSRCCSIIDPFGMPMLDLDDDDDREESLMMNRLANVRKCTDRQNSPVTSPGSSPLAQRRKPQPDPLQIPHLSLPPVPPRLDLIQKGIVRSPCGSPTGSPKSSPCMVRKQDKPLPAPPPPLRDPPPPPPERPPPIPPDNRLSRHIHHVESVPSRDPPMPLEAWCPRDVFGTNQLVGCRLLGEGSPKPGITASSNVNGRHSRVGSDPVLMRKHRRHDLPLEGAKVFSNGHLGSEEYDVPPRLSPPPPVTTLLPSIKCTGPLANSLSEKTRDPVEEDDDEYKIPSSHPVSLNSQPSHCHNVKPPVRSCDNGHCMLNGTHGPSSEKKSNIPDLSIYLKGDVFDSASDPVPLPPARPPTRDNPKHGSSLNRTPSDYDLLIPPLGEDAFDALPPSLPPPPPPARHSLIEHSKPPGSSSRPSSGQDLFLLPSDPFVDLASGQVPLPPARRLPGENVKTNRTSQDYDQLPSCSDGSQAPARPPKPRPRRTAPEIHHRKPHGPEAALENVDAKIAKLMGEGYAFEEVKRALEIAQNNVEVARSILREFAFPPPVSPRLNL

The experiment addresses CBL-B protein (Homo sapiens, UniProt Q13191). Put plainly: CBL-B binding experiment (Streptavidin-Tb cryptate / Ligand L1 displacement). Particulars: 8 nM CBL-B protein, 25° C., 60 minutes; Ki=Relative IC50/2. On the procedure: The reaction system mainly includes 1× buffer, 20 mM HEPES pH 7.5, 150 mM NaCl, 0.01% Triton X-100, 0.5 mM TCEP, and 0.1% ug/ml BSA. The compound is continuously diluted with DMSO for 10 concentration points, and 150 nL is transferred to the experimental plate. The experimental reaction begins after adding 8 nM of CBL-B protein and the reaction is carried out at 25° C. for 60 minutes. […] After an additional 60 minutes of incubation at room temperature, the experimental plate is read using an EnVision plate. The luminescence signal values were converted to percentage inhibition rates. Inhibition %=(Sample value−Maximum value)/(Minimum value−Maximum value)×100. The minimum value refers to the measured value in the wells without CBL-B protein but with DMSO and Ligand, while the maximum value refers to the measured value in the wells with DMSO, CBL-B protein, and Ligand. The IC50 values are calculated by XLFit (version 5.3.1.3) in Excel. Equation: Y=Bottom+(Top−Bottom)/(1+(IC50/X)^HillSlope); Ki=Relative IC50/2.
Turning to `C[C@@H](NCc1cc2c(C(F)(F)F)cn(-c3cccc(C4(c5nncn5C)CCC4)c3)c(=O)c2[nH]1)C(C)(C)C` (racemic) [Compound T044, 6-[3-[1-(4-methyl-1,2,4-triazol-3-yl)cyclobutyl]phenyl]-2-[[[rac-(1R)-1,2,2-trimethylpropyl]amino]methyl]-4-(trifluoromethyl)-1H-pyrrolo[2,3-c]pyridin-7-one], the Ki is < 50 nM.

In the case of `Cn1cnnc1C1(c2cccc(-n3cc(C(F)(F)F)c4cc(CN5CCCC(C(F)F)C5)[nH]c4c3=O)c2)CCC1` (racemic) [Compound T113, 6-[3-[1-(4-methyl-1,2,4-triazol-3-yl)cyclobutyl]phenyl]-2-[[rac-(3R)-3-(difluoromethyl)-1-piperidyl]methyl]-4-(trifluoromethyl)-1H-pyrrolo[2,3-c]pyridin-7-one], the Ki is < 50 nM.

Turning to `C[C@H]1CCCN(Cc2cc3ccn(-c4cccc(C5(Cc6nncn6C)COC5)c4)c(=O)c3[nH]2)C1` [Compound T001, (S)-6-(3-(3-((4-methyl-4H-1,2,4-triazol-3-yl)methyl)oxetan-3-yl)phenyl)-2-((3-methylpiperidin-1-yl)methyl)-1,6-dihydro-7H-pyrrolo[2,3-c]pyridin-7-one], the inhibition constant (Ki) was < 50 nM.

With `Cc1cn(-c2cccc(C3(Cc4nncn4C)COC3)c2)c(=O)c2[nH]c(CN3CCC[C@H](C)C3)cc12` [Compound T003, 4-methyl-2-[[(3S)-3-methyl-1-piperidyl]methyl]-6-[3-[3-[(4-methyl-1,2,4-triazol-3-yl)methyl]oxetan-3-yl]phenyl]-1H-pyrrolo[2,3-c]pyridin-7-one], the inhibition constant (Ki) was < 50 nM.

As for `C=Cc1cn(-c2cccc([C@]3(c4nncn4C)C[C@@H](C)C3)c2)c(=O)c2[nH]c(CN3CCC[C@H](C)C3)cc12` [Compound T004, 6-(3-((1s,3R)-3-methyl-1-(4-methyl-4H-1,2,4-triazol-3-yl)cyclobutyl)phenyl)-2-(((S)-3-methylpiperidin-1-yl)methyl)-4-vinyl-1,6-dihydro-7H-pyrrolo[2,3-c]pyridin-7-one], the inhibition constant Ki was < 50 nM.

For the molecule `Cn1cnnc1CC1(c2cccc(-n3cc(C4CC4)c4cc(CN5CCCCC5)[nH]c4c3=O)c2)COC1` [Compound T006, 4-cyclopropyl-6-[3-[3-[(4-methyl-1,2,4-triazol-3-yl)methyl]oxetan-3-yl]phenyl]-2-(1-piperidylmethyl)-1H-pyrrolo[2,3-c]pyridin-7-one], the Ki was < 50 nM.

With `C[C@H]1CCCN(Cc2cc3c(C4CC4)cn(-c4cccc([C@H](c5nncn5C)C5CCC5)c4)c(=O)c3[nH]2)C1` [Compound T012, 6-(3-((R)-cyclobutyl(4-methyl-4H-1,2,4-triazol-3-yl)methyl)phenyl)-4-cyclopropyl-2-(((S)-3-methylpiperidin-1-yl)methyl)-1,6-dihydro-7H-pyrrolo[2,3-c]pyridin-7-one], the Ki was < 50 nM.

In the case of `Cn1cnnc1C1(c2cccc(-n3cc(C(F)(F)F)c4cc(CN5CC[C@@H](O)C5)[nH]c4c3=O)c2)CCC1` [Compound T015, 2-[[(3R)-3-hydroxypyrrolidin-1-yl]methyl]-6-[3-[1-(4-methyl-1,2,4-triazol-3-yl)cyclobutyl]phenyl]-4-(trifluoromethyl)-1H-pyrrolo[2,3-c]pyridin-7-one], the inhibitory constant (Ki) was < 50 nM.

`Cn1cnnc1C1(c2cccc(-n3cc(C(F)(F)F)c4cc(CN5CC[C@H](O)C5)[nH]c4c3=O)c2)CCC1` [Compound T016, 2-[[(3S)-3-hydroxypyrrolidin-1-yl]methyl]-6-[3-[1-(4-methyl-1,2,4-triazol-3-yl)cyclobutyl]phenyl]-4-(trifluoromethyl)-1H-pyrrolo[2,3-c]pyridin-7-one]: the Ki was < 50 nM.

As to `CC(C)c1cn(-c2cccc(C3(Cc4nncn4C)COC3)c2)c(=O)c2[nH]c(CN3CCC[C@H](C)C3)cc12` [Compound T022, 4-isopropyl-2-[[(3S)-3-methyl-1-piperidyl]methyl]-6-[3-[3-[(4-methyl-1,2,4-triazol-3-yl)methyl]oxetan-3-yl]phenyl]-1H-pyrrolo[2,3-c]pyridin-7-one], the Ki was < 50 nM.

On to `Cn1cnnc1C1(c2cccc(-n3cc(C(F)(F)F)c4cc(CN5C[C@@H]6C[C@H]5CO6)[nH]c4c3=O)c2)CCC1` [Compound T031, 6-[3-[1-(4-methyl-1,2,4-triazol-3-yl)cyclobutyl]phenyl]-2-[[(1 S,4S)-2-oxa-5-azabicyclo [2.2.1]heptan-5-yl]methyl]-4-(trifluoromethyl)-1H-pyrrolo[2,3-c]pyridin-7-one], for which the Ki is < 50 nM.

With `Cn1cnnc1C1(c2cccc(-n3cc(C(F)(F)F)c4cc(CN5C[C@H]6C[C@@H]5CO6)[nH]c4c3=O)c2)CCC1` [Compound T032, 6-[3-[1-(4-methyl-1,2,4-triazol-3-yl)cyclobutyl]phenyl]-2-[[(1R,4R)-2-oxa-5-azabicyclo[2.2.1]heptan-5-yl]methyl]-4-(trifluoromethyl)-1H-pyrrolo[2,3-c]pyridin-7-one], the Ki is < 50 nM.

`C[C@H]1CCCN(Cc2cc3c(C4CC4)cn(-c4cccc([C@]5(Cc6nncn6C)C[C@@H](C)C5)c4)c(=O)c3[nH]2)C1` [Compound T036, 4-cyclopropyl-6-(3-((1r,3S)-3-methyl-1-((4-methyl-4H-1,2,4-triazol-3-yl)methyl)cyclobutyl)phenyl)-2-(((S)-3-methylpiperidin-1-yl)methyl)-1,6-dihydro-7H-pyrrolo[2,3-c]pyridin-7-one] yielded a Ki of 50 to 100 nM.

For `Cn1cnnc1C1(c2cccc(-n3cc(C(F)(F)F)c4cc(CN5CCC[C@@H](O)C5)[nH]c4c3=O)c2)CCC1` [Compound T039, 2-[[(3R)-3-hydroxy-1-piperidyl]methyl]-6-[3-[1-(4-methyl-1,2,4-triazol-3-yl)cyclobutyl]phenyl]-4-(trifluoromethyl)-1H-pyrrolo[2,3-c]pyridin-7-one], the Ki was < 50 nM.

Consider `Cn1cnnc1C1(c2cccc(-n3cc(C(F)(F)F)c4cc(CN5CCC[C@@H](F)C5)[nH]c4c3=O)c2)CCC1` [Compound T046, 2-[[(3R)-3-fluoro-1-piperidyl]methyl]-6-[3-[1-(4-methyl-1,2,4-triazol-3-yl)cyclobutyl]phenyl]-4-(trifluoromethyl)-1H-pyrrolo[2,3-c]pyridin-7-one], for which the inhibition constant (Ki) is < 50 nM.

For `Cn1cnnc1C1(c2cccc(-n3cc(C(F)(F)F)c4cc(CN5CCC[C@H](F)C5)[nH]c4c3=O)c2)CCC1` [Compound T048, 2-[[(3S)-3-fluoro-1-piperidyl]methyl]-6-[3-[1-(4-methyl-1,2,4-triazol-3-yl)cyclobutyl]phenyl]-4-(trifluoromethyl)-1H-pyrrolo[2,3-c]pyridin-7-one], the Ki is < 50 nM.

As to `Cn1cnnc1C1(c2cccc(-n3cc(C(F)(F)F)c4cc(CN5C[C@@H](F)[C@@H](F)C5)[nH]c4c3=O)c2)CCC1` [Compound T049, 2-[[(3R,4S)-3,4-difluoropyrrolidin-1-yl]methyl]-6-[3-[1-(4-methyl-1,2,4-triazol-3-yl)cyclobutyl]phenyl]-4-(trifluoromethyl)-1H-pyrrolo[2,3-c]pyridin-7-one], the Ki is < 50 nM.

For `Cn1cnnc1C1(c2cccc(-n3cc(C(F)(F)F)c4cc(CNCC(F)(F)CO)[nH]c4c3=O)c2)CCC1` [Compound T050, 2-[[(2,2-difluoro-3-hydroxy-propyl)amino]methyl]-6-[3-[1-(4-methyl-1,2,4-triazol-3-yl)cyclobutyl]phenyl]-4-(trifluoromethyl)-1H-pyrrolo[2,3-c]pyridin-7-one], the Ki was < 50 nM.

Take `Cn1cnnc1C1(c2cccc(-n3cc(C(F)(F)F)c4cc(CN5CCC6(CC5)CC6)[nH]c4c3=O)c2)CCC1` [Compound T051, 2-(6-azaspiro[2.5]octan-6-ylmethyl)-6-[3-[1-(4-methyl-1,2,4-triazol-3-yl)cyclobutyl]phenyl]-4-(trifluoromethyl)-1H-pyrrolo[2,3-c]pyridin-7-one]: the inhibition constant (Ki) was < 50 nM.

`Cn1cnnc1C1(c2cccc(-n3cc(C(F)(F)F)c4cc(CN5C6CCCC5CC6)[nH]c4c3=O)c2)CCC1` [Compound T052, 2-(8-azabicyclo[3.2.1]octan-8-ylmethyl)-6-[3-[1-(4-methyl-1,2,4-triazol-3-yl)cyclobutyl]phenyl]-4-(trifluoromethyl)-1H-pyrrolo[2,3-c]pyridin-7-one]: the inhibition constant Ki is < 50 nM.

As to `CN(Cc1cc2c(C(F)(F)F)cn(-c3cccc(C4(c5nncn5C)CCC4)c3)c(=O)c2[nH]1)CC(F)(F)F` [Compound T057, 2-((methyl(2,2,2-trifluoroethyl)amino)methyl)-6-(3-(1-(4-methyl-4H-1,2,4-triazol-3-yl)cyclobutyl)phenyl)-4-(trifluoromethyl)-1,6-dihydro-7H-pyrrolo[2,3-c]pyridin-7-one], the Ki is < 50 nM.

On to `C[C@H]1CCCN(Cc2cc3c(C(F)(F)F)cn(-c4cccc([C@@H](c5nncn5C)C5CCC5)c4)c(=O)c3[nH]2)C1` [Compound T059, 6-(3-((S)-cyclobutyl (4-methyl-4H-1,2,4-triazol-3-yl)methyl)phenyl)-2-(((S)-3-methylpiperidin-1-yl)methyl)-4-(trifluoromethyl)-1,6-dihydro-7H-pyrrolo[2,3-c]pyridin-7-one], for which the Ki is < 50 nM.

Regarding `C[C@H]1CCCN(Cc2cc3c(C(F)(F)F)cn(-c4cccc(C5(Cc6nncn6C)COC5)c4)c(=O)c3[nH]2)C1` [Compound T061, 2-[[(3S)-3-methyl-1-piperidyl]methyl]-6-[3-[3-[(4-methyl-1,2,4-triazol-3-yl)methyl]oxetan-3-yl]phenyl]-4-(trifluoromethyl)-1H-pyrrolo[2,3-c]pyridin-7-one], the Ki is < 50 nM.
